Experimental data published in patent publication US20050153870A1, “Medicinal composition for diagnosis, prevention, or therapy of multiple risk factor syndrome” (priority 2002, published 2005).
Marks after values point to notes of the source that are not given here.

Experiments:
[1] = tested on: hypercholesterolemia patients; experiment: Clinical test I; format: in vivo, human; conditions: for Fasting blood sugar (FBS) level: 5 patients with high blood sugar
Description: The participants consisted of 9 Caucasian males and 7 Caucasian females. They participated in Clinical test I on a voluntary basis after they signed informed consent for clinical test participation, which was proposed by a medical institution based on the Helsinki declaration.
Their ages were 55 years old in average and ranging from 40 to 82 years old. Their average body weigh was 70.2±13.57 kg (standard deviation).
All participants took dietary therapy for treating hypercholesterolemia. Since various medicaments were administered, the period of 8 weeks, prior to Clinical test I, was provided to stop taking all pills, thereby washing out effects of medicaments. During the period of the Clinical test I, it was not allowed to take any other medicament together with a test medicament. Patients with type II diabetes were excluded from the participants; however, 5 patients with a high blood sugar level were included in the participants. Since they were not diagnosed as diabetes, they were allowed to participate in the test. Of 16 participants, 10 patients had hypertension and 4 patients had borderline hypertension defined by WHO. Only 2 patients had normal blood pressure.

[2] = tested on: Rat; experiment: Glucogenesis in the liver; format: in vivo; conditions: perorally
Description: Compounds of this series suppresses hepatic glucogenesis which is induced by administration of dexamethazon to a rat. For this reason, it antagonizes the action of glucocorticoid in vivo. The compound further has an effect of suppressing steroid diabetes characterized by polydipsia and polyurea and urine sugar excretion induced by administering cortisol to a rat. […] These facts strongly support that compounds of this series is useful in preventing and/or treating visceral fat syndrome.

[3] = in vivo; cited from earlier work
[4] = tested on: C57BL/Ksj-db/db mice; experiment: AS-6 in feed to db/db mice (Example 4); format: in vivo, mouse; conditions: 0.1% in feed, 1 week
Description: C57BL/Ksj-db/db mice, which were model animals of multiple risk factor syndrome, were raised for a week with powered feed containing an ascochlorin derivative, 4-O-carboxymethylascochlorin (AS-6), in a content of 0.1%. Thereafter, the weight, blood sugar, blood insulin, and blood neutral fat were measured.

[5] = Borderline hypertensive group, 4 patients, 10th week, Placebo period after 8 weeks of medication
[6] = Borderline hypertensive group, 4 patients, 12th week, Placebo period after 8 weeks of medication
[7] = Hypertension group, 10 patients, 10th week, Placebo period after 8 weeks of medication
[8] = Hypertension group, 10 patients, 12th week, Placebo period after 8 weeks of medication

COc1c(Cl)c(C)c(C=O)c(O)c1C/C=C(C)/C=C/[C@@]1(C)[C@H](C)CCC(=O)[C@@H]1C [4-O-methylascochlorin]
normal blood pressure ([1]; 2 patients of normal blood pressure): does not affect normal blood pressure | blood sugar levels ([1]; 5 cases exhibiting high blood sugar): brought back to normal levels | Fasting blood sugar (FBS) level ([1]; 1st week, 0.5 mg/kg, before medication 132.4 ± 16.0): 100.0 ± 11.0 mg/dL | Fasting blood sugar (FBS) level ([1]; 2nd week, 1.0 mg/kg, before medication 132.4 ± 16.0): 102.0 ± 4.0 mg/dL | Fasting blood sugar (FBS) level ([1]; 3rd week, 2.0 mg/kg, before medication 132.4 ± 16.0): 103.6 ± 12.1 mg/dL | Fasting blood sugar (FBS) level ([1]; 4th week, 4.0 mg/kg, before medication 132.4 ± 16.0): 103.2 ± 11.7 mg/dL | Fasting blood sugar (FBS) level ([1]; 6th week, 8.0 mg/kg, before medication 132.4 ± 16.0): 98.0 ± 4.6 mg/dL | Fasting blood sugar (FBS) level ([1]; 8th week, 16.0 mg/kg, before medication 132.4 ± 16.0): 93.3 ± 6.1 mg/dL | Fasting blood sugar (FBS) level ([1]; 10th week, Placebo period after 8 weeks of medication): 93.5 ± 6.4 mg/dL | Fasting blood sugar (FBS) level ([1]; 12th week, Placebo period after 8 weeks of medication): 100.5 ± 11.6 mg/dL | Blood sugar level ([1]; 5 patients, 6th week, 8 mg/kg): completely returns to a normal level | Total serum cholesterol ([1]; 6th week, 16 folds the amount of 0.5 mg/kg): decreased to the upper limit of the normal range | decrease of body weight compared to before medication ([1]; 8 weeks after the initiation of medication, P<0.001): 0.9 kg | blood pressure of the systolic period and the diastolic period ([1]; 10 hypertensive patients, 8th week): decreased both pressure values to normal levels | lowering of serum total cholesterol by medication ([1]; 16 hypercholesterolemia patients): ≥ 30% | Total serum cholesterol ([1]; 16 hypercholesterolemia patients, 1st week, 0.5 mg/kg, before medication 342.0 ± 61.0): 272.6 ± 62.7 mg/dL | Total serum cholesterol ([1]; 16 hypercholesterolemia patients, 2nd week, 1.0 mg/kg, before medication 342.0 ± 61.0): 266.5 ± 66.7 mg/dL | Total serum cholesterol ([1]; 16 hypercholesterolemia patients, 3rd week, 2.0 mg/kg, before medication 342.0 ± 61.0): 268.7 ± 66.0 mg/dL | Total serum cholesterol ([1]; 16 hypercholesterolemia patients, 4th week, 4.0 mg/kg, before medication 342.0 ± 61.0): 254.2 ± 65.7 mg/dL | Total serum cholesterol ([1]; 16 hypercholesterolemia patients, 6th week, 8.0 mg/kg, before medication 342.0 ± 61.0): 217.4 ± 58.8 mg/dL | Total serum cholesterol ([1]; 16 hypercholesterolemia patients, 8th week, 16.0 mg/kg, before medication 342.0 ± 61.0): 229.5 ± 61.9 mg/dL | Total serum cholesterol ([1]; 16 hypercholesterolemia patients, 10th week, Placebo period after 8 weeks of medication): 255.9 ± 57.6 mg/dL | Total serum cholesterol ([1]; 16 hypercholesterolemia patients, 12th week, Placebo period after 8 weeks of medication): 264.0 ± 57.5 mg/dL | abnormality in the serum biological test, hematocyte test, and urine test ([1]; 16 patients, 12 weeks): No abnormality ascribed to medication | side effect ([1]; 16 patients, 12 weeks, 0.5 to 16.0 mg/kg, not so severe, medication continued): one case with light eruption and one case with dizziness | Diastolic pressure ([1]; Borderline hypertensive group, 4 patients, 1st week, 0.5 mg/kg, before medication 87.1 ± 2.7): 82.1 ± 3.9 mmHg | Systolic pressure ([1]; Borderline hypertensive group, 4 patients, 1st week, 0.5 mg/kg, before medication 149.3 ± 7.9): 133.6 ± 9.0 mmHg | Diastolic pressure ([1]; Borderline hypertensive group, 4 patients, 2nd week, 1.0 mg/kg, before medication 87.1 ± 2.7): 81.4 ± 4.8 mmHg | Systolic pressure ([1]; Borderline hypertensive group, 4 patients, 2nd week, 1.0 mg/kg, before medication 149.3 ± 7.9): 134.3 ± 6.7 mmHg | Diastolic pressure ([1]; Borderline hypertensive group, 4 patients, 3rd week, 2.0 mg/kg, before medication 87.1 ± 2.7): 81.4 ± 2.4 mmHg | Systolic pressure ([1]; Borderline hypertensive group, 4 patients, 3rd week, 2.0 mg/kg, before medication 149.3 ± 7.9): 134.3 ± 9.3 mmHg | Diastolic pressure ([1]; Borderline hypertensive group, 4 patients, 4th week, 4.0 mg/kg, before medication 87.1 ± 2.7): 80.7 ± 3.5 mmHg | Systolic pressure ([1]; Borderline hypertensive group, 4 patients, 4th week, 4.0 mg/kg, before medication 149.3 ± 7.9): 130.7 ± 8.9 mmHg | Diastolic pressure ([1]; Borderline hypertensive group, 4 patients, 6th week, 8.0 mg/kg, before medication 87.1 ± 2.7): 78.6 ± 3.8 mmHg | Systolic pressure ([1]; Borderline hypertensive group, 4 patients, 6th week, 8.0 mg/kg, before medication 149.3 ± 7.9): 130.7 ± 8.9 mmHg | Diastolic pressure ([1]; Borderline hypertensive group, 4 patients, 8th week, 16.0 mg/kg, before medication 87.1 ± 2.7): 77.9 ± 3.9 mmHg | Systolic pressure ([1]; Borderline hypertensive group, 4 patients, 8th week, 16.0 mg/kg, before medication 149.3 ± 7.9): 130.0 ± 8.2 mmHg | Diastolic pressure [1, 5]: 78.6 ± 4.8 mmHg | Systolic pressure [1, 5]: 130.7 ± 9.3 mmHg | Diastolic pressure [1, 6]: 78.6 ± 4.8 mmHg | Systolic pressure [1, 6]: 132.1 ± 10.4 mmHg | Diastolic pressure ([1]; Hypertension group, 10 patients, 1st week, 0.5 mg/kg, before medication 91.0 ± 7.7): 83.5 ± 4.7 mmHg | Systolic pressure ([1]; Hypertension group, 10 patients, 1st week, 0.5 mg/kg, before medication 161.5 ± 21.1): 143.5 ± 28.5 mmHg | Diastolic pressure ([1]; Hypertension group, 10 patients, 2nd week, 1.0 mg/kg, before medication 91.0 ± 7.7): 83.0 ± 5.4 mmHg | Systolic pressure ([1]; Hypertension group, 10 patients, 2nd week, 1.0 mg/kg, before medication 161.5 ± 21.1): 147.5 ± 28.5 mmHg | Diastolic pressure ([1]; Hypertension group, 10 patients, 3rd week, 2.0 mg/kg, before medication 91.0 ± 7.7): 84.5 ± 6.0 mmHg | Systolic pressure ([1]; Hypertension group, 10 patients, 3rd week, 2.0 mg/kg, before medication 161.5 ± 21.1): 147.5 ± 26.1 mmHg | Diastolic pressure ([1]; Hypertension group, 10 patients, 4th week, 4.0 mg/kg, before medication 91.0 ± 7.7): 85.5 ± 9.44 mmHg | Systolic pressure ([1]; Hypertension group, 10 patients, 4th week, 4.0 mg/kg, before medication 161.5 ± 21.1): 148.5 ± 26.8 mmHg | Diastolic pressure ([1]; Hypertension group, 10 patients, 6th week, 8.0 mg/kg, before medication 91.0 ± 7.7): 83.5 ± 9.44 mmHg | Systolic pressure ([1]; Hypertension group, 10 patients, 6th week, 8.0 mg/kg, before medication 161.5 ± 21.1): 144.5 ± 29.8 mmHg | Diastolic pressure ([1]; Hypertension group, 10 patients, 8th week, 16.0 mg/kg, before medication 91.0 ± 7.7): 78.1 ± 3.7 mmHg | Systolic pressure ([1]; Hypertension group, 10 patients, 8th week, 16.0 mg/kg, before medication 161.5 ± 21.1): 130.0 ± 7.6 mmHg | Diastolic pressure [1, 7]: 83.5 ± 8.8 mmHg | Systolic pressure [1, 7]: 145.5 ± 26.3 mmHg | Diastolic pressure [1, 8]: 84.0 ± 9.7 mmHg | Systolic pressure [1, 8]: 151.5 ± 32.4 mmHg | blood pressure of the hypertension group and borderline hypertension group ([1]; medication for 8 weeks): dropped to the upper limit of a normal range | drop of total serum cholesterol, average ([1]; one week after 0.5 mg/kg perorally): 70 mg/dL | Serum neutral fat ([1]; ratio of serum neutral fat/serum total cholesterol 1.2 or less (hyperlipemia type IIa)): significantly decreased | Serum neutral fat ([1]; ratio of serum neutral fat/serum total cholesterol 1.2 or more (hyperlipemia type IIb and type IV)): a significant decrease of serum neutral fat was not observed | glucogenesis performed in the liver [2]: performed in the liver is suppressed. | distribution of the isotope-labeled compound [3]: widely and specifically distributed in the adipose tissue as well as in the adrenal gland | synthesis of steroid hormones (glucocorticoid+mineral corticoid) of adrenal cortex [3]: regulates synthesis of steroid hormones

CC(C=CC1(C)C(C)CCC(=O)C1C)=CCc1c(O)c(C=O)c(C)c(Cl)c1OCC(=O)O (centres unmarked) [AS-6, 4-O-carboxymethylascochlorin]
Blood sugar, change vs db/db control group [4]: −30.0%** | Body weight, change vs db/db control group [4]: ns | Cholesterol, change vs db/db control group [4]: ns | Free fatty acid, change vs db/db control group [4]: −21.1%** | Insulin, change vs db/db control group [4]: ns | Neutral fat, change vs db/db control group [4]: −38.3%** | Free fatty acid ([4]; db/db control 1.164 ± 0.03): 0.918 ± 0.1 mEq/L | Insulin ([4]; db/db control 31.0 ± 3.6): 34.6 ± 3.5 μU/mL | Body weight ([4]; db/db control 52.9 ± 0.8): 56.3 ± 1.2 g | Cholesterol ([4]; db/db control 109.9 ± 3.3): 114.4 ± 4.3 mg/dL | Neutral fat ([4]; db/db control 378.5 ± 19.3): 223.5 ± 17.7 mg/dL | blood sugar ([4]; db/db control 637.3 ± 28.9): 445.8 ± 32.5 mg/dL | blood sugar, blood free fatty acid, and blood neutral fat ([4]; db/db mice): significantly reduced
